Test results reported in a compilation of properties of binary mixtures (doi:10.1021/je300542s).

Assay: xn = mol fraction of the nth substance listed
Conditions: 101 kPa

CC[n+]1ccn(C)c1.F[B-](F)(F)F + CN1CCCC1=O
speed of sound [m/s]
Conditions | 293.15 K | 298.15 K | 303.15 K | 308.15 K
x2 = 0.0696 | – | – | 1598 | 1586.4
x2 = 0.0871 | – | 1607.6 | 1595.9 | 1584.2
x2 = 0.1273 | 1615.1 | 1603.2 | – | 1579.3
x2 = 0.1676 | 1611.5 | 1599.5 | 1587.2 | –
x2 = 0.2658 | 1605.6 | 1592 | 1579 | 1565.5
x2 = 0.2689 | 1605.3 | 1592 | – | 1565.2
x2 = 0.3228 | 1603.2 | 1589 | 1575.2 | 1560.7
x2 = 0.3683 | 1601.7 | 1586.9 | – | 1557.7
x2 = 0.4291 | 1600 | 1584.2 | – | –
x2 = 0.4744 | 1599.2 | 1582.6 | 1566.9 | 1551
x2 = 0.5227 | 1597.8 | 1581 | – | 1547.9
x2 = 0.5685 | 1596.9 | 1579 | 1562.4 | 1545.4
x2 = 0.6286 | 1595 | 1576.7 | 1559.3 | 1541.5
x2 = 0.6703 | 1593 | 1574.5 | – | 1539
x2 = 0.7291 | 1590.1 | 1571.2 | 1553.4 | 1534.5
x2 = 0.7711 | 1587.7 | – | 1550.1 | 1531.2
x2 = 0.8188 | 1584 | 1564.7 | – | –
x2 = 0.8887 | 1577.9 | 1558.4 | 1539.7 | 1520.3

O=C1CCCN1 + CC[n+]1ccn(C)c1.F[B-](F)(F)F
speed of sound [m/s]
Conditions | 293.15 K | 298.15 K | 303.15 K | 308.15 K
x1 = 0.0786 | 1634.5 | 1622.4 | 1612.6 | 1602.5
x1 = 0.0912 | 1635 | – | 1613.4 | 1603.4
x1 = 0.1278 | 1636.6 | 1624.6 | 1615.4 | 1605.6
x1 = 0.1711 | – | 1626.5 | – | –
x1 = 0.2294 | – | – | 1620.5 | –
x1 = 0.2686 | 1642.3 | 1630.8 | 1622.3 | –
x1 = 0.3292 | 1644.6 | 1633.3 | 1624.5 | 1613.2
x1 = 0.3684 | 1646.2 | 1634.8 | 1626 | 1614
x1 = 0.4283 | 1648.7 | 1637.1 | 1627.7 | 1615
x1 = 0.4695 | 1650.2 | 1638.6 | 1628.3 | 1615.7
x1 = 0.5281 | – | 1640 | 1629.2 | 1615.9
x1 = 0.5711 | 1653.7 | 1641.1 | – | 1616.2
x1 = 0.6283 | 1655.2 | 1641.9 | 1629.5 | 1615.9
x1 = 0.6603 | 1656 | 1642.1 | 1629.2 | 1615.3
x1 = 0.7302 | 1656.7 | – | 1628 | –
x1 = 0.7598 | – | 1641.5 | 1627.1 | –
x1 = 0.8296 | 1656.4 | 1640.1 | 1624.9 | 1611
x1 = 0.8901 | – | 1638.4 | – | 1608.3
